Data: patent US10729674B2, “Nanoparticle isoflavone compositions and methods of making and using the same” (Humanetics Corporation, priority 2010, dated 2020)
Values after ≈ are worked out from the molar mass of the structure shown. Where two headings read alike, the source gives them in different places.

Columns and labels:
[1] = Solubility of genistein in vehicles at 25° C.; format: physicochemical
Protocol: Calculated pka's for genistein range from 7-9, with the predicted solubility increasing above pH 7 in accordance with the lowest pKa. The calculated properties were used to design the appropriate pH range for the pH-solubility profile of genistein in several acceptable cosolvents, which was established to be pH 6-9.
The solubility of genistein in water is not detectable at pH 6-7, which implies the solubility is less than 0.02 mg/mL or ˜0.00002 g/g H2O (lowest concentration), Based on the pH-solubility and solubility in cosolvents, it was determined that PEG400 would be the cosolvent to achieve highest solubility. Since parenteral formulations preferably have a maximum of 50% organic component, the addition of Ethanol (EtOH), Nmethylpyrrolidone (NMP) and a surfactant were considered, since these would be expected to enhance absorption from the injection site. Ethanol has the added benefit of reducing viscosity. […] Solubility was further evaluated in two aqueous/organic mixtures with concentrations acceptable for a parenteral dosage form. Additionally, cyclodextrin formulations were evaluated.

[2] = 25° C.; cited from earlier work

O=c1c(-c2ccc(O)cc2)coc2cc(O)cc(O)c12 [Genistein, 5,7-dihydroxy-3-(4-hydroxyphenyl)-chromen-4-one]
solubility ([1]; 25 °C, aqueous with cosolvent or surfactant or cyclodextrin, thermodynamic from solid, 30% Hydroxypropyl-β-cyclodextrin, read-out: Solubility of GENISTEIN at 25° C.): 6 mg/mL (≈ 22.2 mM) | solubility ([1]; 25 °C, aqueous with cosolvent or surfactant or cyclodextrin, thermodynamic from solid, 30% Sulfobutylether-β-cyclodextrin, read-out: Solubility of GENISTEIN at 25° C.): 8 mg/mL (≈ 29.6 mM) | solubility ([1]; 25 °C, organic solvent or mixture, thermodynamic from solid, Dimethyl acetamide (DMA), read-out: Solubility at 25° C.): 141 mg/mL (≈ 523 mM) | solubility ([1]; 25 °C, organic solvent or mixture, thermodynamic from solid, Ethanol, read-out: Solubility at 25° C.): 25 mg/mL (≈ 92.5 mM) | solubility ([1]; 25 °C, organic solvent or mixture, thermodynamic from solid, N-methyl pyrrolidone (NMP), read-out: Solubility at 25° C.): 238 mg/mL (≈ 881 mM) | solubility ([1]; 25 °C, organic solvent or mixture, thermodynamic from solid, Polyethylene Glycol 300 (PEG300), read-out: Solubility at 25° C.): 110 mg/mL (≈ 409 mM) | solubility ([1]; 25 °C, organic solvent or mixture, thermodynamic from solid, Polyethylene Glycol 400 (PEG400), read-out: Solubility at 25° C.): 115 mg/mL (≈ 426 mM) | solubility ([1]; 25 °C, organic solvent or mixture, thermodynamic from solid, Propylene Glycol, read-out: Solubility at 25° C.): 6.2 mg/mL (≈ 22.9 mM) | solubility ([1]; 25 °C, pH 6, aqueous buffer, thermodynamic from solid, pH 6-7, not detectable, lowest concentration, read-out: solubility in water): < 0.02 mg/mL | solubility ([1]; 25 °C, pH 7, aqueous with cosolvent or surfactant or cyclodextrin, thermodynamic from solid, 10% Polysorbate 80/10% EtOH/40% PEG400/40% 25 mM Phosphate Buffered Saline (pH 7), read-out: Solubility of GENISTEIN at 25° C.): 12 mg/mL (≈ 44.4 mM) | solubility ([1]; 25 °C, pH 7, aqueous with cosolvent or surfactant or cyclodextrin, thermodynamic from solid, 10% Polysorbate 80/10% NMP/40% PEG400/40% 25 mM Phosphate Buffered Saline (pH 7), read-out: Solubility of GENISTEIN at 25° C.): 19 mg/mL (≈ 70.3 mM) | solubility ([1]; 25 °C, pH 7, aqueous with cosolvent or surfactant or cyclodextrin, thermodynamic from solid, 10% Polysorbate 80/40% PEG400/50% 25 mM Phosphate Buffered Saline (pH 7), read-out: Solubility of GENISTEIN at 25° C.): 11 mg/mL (≈ 40.7 mM) | solubility at 7 days ([1]; 25 °C, pH 9, aqueous buffer, thermodynamic from solid, Borate buffer pH 9, 7 days): 0.043 mg/mL (≈ 0.159 mM) | solubility at 14 days ([1]; 25 °C, pH 9, aqueous buffer, thermodynamic from solid, Borate buffer pH 9, 14 days): 0.005 mg/mL (≈ 0.0185 mM) | Solubility at 25° C. ([1]; Borate buffer pH 9, 3 days): Not detected | Solubility at 25° C. ([1]; Citrate buffer pH 6): Not detected | Solubility at 25° C. ([1]; Phosphate buffer pH 7): Not detected | Solubility at 25° C. ([1]; TRIS buffer pH 8): Not detected | solubility in water ([1]; pH 6-7, not detectable, lowest concentration): < 0.00002 g/g H2O | stability in pH-solubility profile ([1]; pH 9): degradation was observed | parts water required to dissolve one part genistein [2]: greater than 50,000 parts water
